Where a name gives a salt, the structure may show the parent alone. Read-outs that look alike come from different tables or passages of the source.
Columns and labels:
[1] = system: carbachol-induced hypersialosis; test: Action against carbachol-induced hypersialosis (salivation, oral); type: in vivo, SD male rats; conditions: for ED50: Rattus norvegicus, read-out: Salivation inhibitory action ID50; for Selectivity: bladder over salivation, propiverine hydrochloride = 1.0; for Salivation inhibitory action / Bladder contraction inhibitory action: ratio of ID50 values
Protocol: Action against carbachol-induced hypersialosis Testing method
A test compound was orally administered to each of SD male rats weighing 100 to 150 g. Thirty minutes later, 0.1 mg/kg of carbachol was intraperitoneally administered. Immediately after the administration of carbachol, the rat was fixed by hands under non-anesthesia and under this condition, the saliva was wiped off with a cotton ball for 10 minutes. The weight of the saliva so obtained was measured.

[2] = system: acetylcholine-induced bladder contraction; test: Action against acetylcholine-induced bladder contraction (intraduodenal); type: in vivo, SD male rats; conditions: Rattus norvegicus, 2 h, read-out: Bladder contraction inhibitory action ID50
Protocol: Action against acetylcholine-induced bladder contraction Testing method
SD male rats weighing 230 to 390 g were each fixed on its back under intraperitoneal anesthesia with 500 mg/kg of urethane and 50 mg/kg of α-chloralose. Then, its bladder was exposed by midline abdominal incision. Into the top part of the bladder, a polyethylene tube filled with physiological saline was inserted and intracystic pressure was measured. Into the femoral vein, a venous cannula for administration of a drug was inserted, through which 10 μg/kg of acetylcholine were administered to induce bladder contraction. Then, acetylcholine was administered at intervals of 10 minutes. After the bladder contraction by acetylcholine became stable, the stomach was subjected to midline incision and the test compound was intraduodenally administered using an injection needle.
The bladder contraction was measured as a difference of intracystic pressure before and after the administration of acetylcholine.

[3] = SD male rats, oral, 30 minutes before carbachol 0.1 mg/kg i.p., saliva weight over 10 minutes
[4] = SD male rats, intraduodenal, acetylcholine 10 μg/kg i.v., intracystic pressure, observed 120 minutes

Row | SMILES | ED50 [1, 3] [mg/kg] | Selectivity [1] | Salivation inhibitory action / Bladder contraction inhibitory action [1] | ED50 [2, 4] [mg/kg] | ED50 ([1]; po) [mg/kg] | ED50 [2] [mg/kg]
1 | CCCOC(C(=O)NC1CCN(Cc2ccccc2)CC1)(c1ccccc1)C1CC1 (centres unmarked) [compound 12] | 22.5 | 2.4 | 2.3 | 10 |  | 
2 | CCCOC(C(=O)OC1CCN(C)CC1)(c1ccccc1)c1ccccc1 [Propiverine hydrochloride, reference compound] | 9.2 | 1.0 | 0.9 | 9.9 |  | 
3 | CCCOC(C(=O)NC1CCN(Cc2ccccc2)CC1)(c1ccccc1)C(C)C (centres unmarked) [compound 3] | 33.9 | 4.0 | 3.6 | 9.4 |  | 
4 | CCCCOC(C(=O)NC1CCN(Cc2ccccc2)CC1)(c1ccccc1)C(C)C (centres unmarked) [Compound No. 4, N-(1-benzyl-4-piperidinyl)-2-butoxy-3-methyl-2-phenylbutanamide] | 56.6 | 6.2 | 5.8 | 9.8 |  | 
5 | CCN(CC)CC#CCOC(=O)C(O)(c1ccccc1)C1CCCCC1 (centres unmarked) [Oxybutynin hydrochloride, reference compound] |  | 1.1 | 1.0 |  | 3.5 | 3.4

From patent US6060485A, “Arylacetic amide derivative or salt thereof, and pharmaceutical comprising it” (SSP Co., Ltd., priority 1997, dated 2000)
